Data reported in the NIST ThermoML archive (doi:10.1021/je900387e).
± gives the expanded uncertainty stated by the source.

Experiment: xn = mol fraction of the nth substance listed
Conditions: Liquid, Pycnometric method

Cn1ccnc1 [1-methylimidazole] + O=C=O
mass density [kg/m3]
Conditions	332.4 K	337.4 K
13050 kPa, x1 = 0.0102	–	568 ± 4
13150 kPa, x1 = 0.0102	–	576 ± 4
13270 kPa, x1 = 0.0102	–	584 ± 4
13350 kPa, x1 = 0.0102	600 ± 4	–
13370 kPa, x1 = 0.0102	–	593 ± 4
13490 kPa, x1 = 0.0102	–	601 ± 4
13550 kPa, x1 = 0.0247	668 ± 4	–
13560 kPa, x1 = 0.0102	612 ± 4	–
13620 kPa, x1 = 0.0102	–	610 ± 4
13730 kPa, x1 = 0.0247	675 ± 4	–
13770 kPa, x1 = 0.0102	–	619 ± 4
13790 kPa, x1 = 0.0102	623 ± 4	–
13890 kPa, x1 = 0.0247	681 ± 4	–
13910 kPa, x1 = 0.0102	–	628 ± 4
13960 kPa, x1 = 0.0247	684 ± 4	–
14040 kPa, x1 = 0.0102	636 ± 4	–
14080 kPa, x1 = 0.0102	–	638 ± 4
14140 kPa, x1 = 0.0247	690 ± 4	–
14240 kPa, x1 = 0.0102	–	648 ± 4
14320 kPa, x1 = 0.0102	649 ± 4	–
14330 kPa, x1 = 0.0247	696 ± 4	–
14430 kPa, x1 = 0.0102	–	658 ± 4
14490 kPa, x1 = 0.0247	–	650 ± 4
14520 kPa, x1 = 0.0247	703 ± 4	–
14560 kPa, x1 = 0.0247	–	653 ± 4
14630 kPa, x1 = 0.0102	–	669 ± 4
14640 kPa, x1 = 0.0102	663 ± 4	–
14660 kPa, x1 = 0.0247	–	658 ± 4
14740 kPa, x1 = 0.0247	709 ± 4	–
14780 kPa, x1 = 0.0247	–	662 ± 4
14850 kPa, x1 = 0.0102	–	680 ± 4
14900 kPa, x1 = 0.0247	–	666 ± 4
14970 kPa, x1 = 0.0247	716 ± 4	–
15020 kPa, x1 = 0.0247	–	671 ± 4
15030 kPa, x1 = 0.0102	677 ± 4	–
15080 kPa, x1 = 0.0102	–	691 ± 4
15140 kPa, x1 = 0.0247	–	675 ± 4
15220 kPa, x1 = 0.0247	723 ± 4	–
15270 kPa, x1 = 0.0247	–	680 ± 4
15350 kPa, x1 = 0.0102	–	703 ± 4
15420 kPa, x1 = 0.0247	–	684 ± 4
15450 kPa, x1 = 0.0487	779 ± 4	–
15480 kPa, x1 = 0.0102	692 ± 4	–
15480 kPa, x1 = 0.0247	730 ± 4	–
15560 kPa, x1 = 0.0247	–	689 ± 4
15710 kPa, x1 = 0.0487	784 ± 4	–
15730 kPa, x1 = 0.0247	–	693 ± 4
15740 kPa, x1 = 0.0102	–	719 ± 4
15750 kPa, x1 = 0.0247	737 ± 4	–
15880 kPa, x1 = 0.0247	–	698 ± 4
15920 kPa, x1 = 0.0487	789 ± 4	–
15960 kPa, x1 = 0.0247	742 ± 4	–
15970 kPa, x1 = 0.0102	707 ± 4	–
16050 kPa, x1 = 0.0247	–	703 ± 4
16080 kPa, x1 = 0.0102	–	732 ± 4
16130 kPa, x1 = 0.0487	794 ± 4	–
16190 kPa, x1 = 0.0247	747 ± 4	–
16230 kPa, x1 = 0.0247	–	708 ± 4
16260 kPa, x1 = 0.0487	797 ± 4	–
16390 kPa, x1 = 0.0487	799 ± 4	–
16410 kPa, x1 = 0.0247	–	713 ± 4
16430 kPa, x1 = 0.0247	752 ± 4	–
16450 kPa, x1 = 0.0102	–	745 ± 4
16520 kPa, x1 = 0.0487	801 ± 4	–
16570 kPa, x1 = 0.0102	723 ± 4	–
16600 kPa, x1 = 0.0487	–	768 ± 4
16610 kPa, x1 = 0.0247	–	717 ± 4
16640 kPa, x1 = 0.0487	–	769 ± 4
16650 kPa, x1 = 0.0487	804 ± 4	–
16720 kPa, x1 = 0.0247	758 ± 4	–
16730 kPa, x1 = 0.0487	–	770 ± 4
16830 kPa, x1 = 0.0487	806 ± 4	–
16840 kPa, x1 = 0.0102	–	759 ± 4
16850 kPa, x1 = 0.0487	–	773 ± 4
16890 kPa, x1 = 0.0247	–	724 ± 4
16910 kPa, x1 = 0.0247	762 ± 4	–
16960 kPa, x1 = 0.0487	–	775 ± 4
16970 kPa, x1 = 0.0487	809 ± 4	–
17070 kPa, x1 = 0.0487	–	777 ± 4
17090 kPa, x1 = 0.0247	766 ± 4	–
17130 kPa, x1 = 0.0487	811 ± 4	–
17170 kPa, x1 = 0.0487	–	780 ± 4
17190 kPa, x1 = 0.0247	–	731 ± 4
17260 kPa, x1 = 0.0102	740 ± 4	–
17260 kPa, x1 = 0.0487	814 ± 4	–
17290 kPa, x1 = 0.0487	–	782 ± 4
17300 kPa, x1 = 0.0102	–	773 ± 4
17300 kPa, x1 = 0.0247	770 ± 4	–
17410 kPa, x1 = 0.0487	–	784 ± 4
17440 kPa, x1 = 0.0487	817 ± 4	–
17450 kPa, x1 = 0.0247	–	737 ± 4
17510 kPa, x1 = 0.0247	774 ± 4	–
17520 kPa, x1 = 0.1024	890 ± 4	–
17560 kPa, x1 = 0.0487	–	787 ± 4
17590 kPa, x1 = 0.0487	819 ± 4	–
17680 kPa, x1 = 0.0247	–	742 ± 4
17680 kPa, x1 = 0.0487	–	789 ± 4
17680 kPa, x1 = 0.1024	892 ± 4	–
17730 kPa, x1 = 0.1024	892 ± 4	–
17750 kPa, x1 = 0.0487	821 ± 4	–
17800 kPa, x1 = 0.0247	779 ± 4	–
17800 kPa, x1 = 0.1024	893 ± 4	–
17810 kPa, x1 = 0.0487	–	791 ± 4
17820 kPa, x1 = 0.0102	–	788 ± 4
17890 kPa, x1 = 0.1024	894 ± 4	–
17920 kPa, x1 = 0.0487	824 ± 4	–
17940 kPa, x1 = 0.0487	–	794 ± 4
17960 kPa, x1 = 0.1024	895 ± 4	–
18040 kPa, x1 = 0.1024	896 ± 4	–
18060 kPa, x1 = 0.0102	757 ± 4	–
18060 kPa, x1 = 0.0247	–	749 ± 4
18090 kPa, x1 = 0.0487	–	797 ± 4
18090 kPa, x1 = 0.1024	896 ± 4	–
18120 kPa, x1 = 0.0487	827 ± 4	–
18150 kPa, x1 = 0.1024	897 ± 4	–
18200 kPa, x1 = 0.0102	–	798 ± 4
18200 kPa, x1 = 0.1024	897 ± 4	–
18210 kPa, x1 = 0.0487	–	799 ± 4
18250 kPa, x1 = 0.1024	898 ± 4	–
18280 kPa, x1 = 0.0487	829 ± 4	–
18310 kPa, x1 = 0.1024	899 ± 4	–
18350 kPa, x1 = 0.0487	–	800 ± 4
18400 kPa, x1 = 0.1024	900 ± 4	–
18470 kPa, x1 = 0.1024	900 ± 4	–
18480 kPa, x1 = 0.0487	832 ± 4	–
18510 kPa, x1 = 0.0487	–	804 ± 4
18530 kPa, x1 = 0.1024	901 ± 4	–
18580 kPa, x1 = 0.1024	901 ± 4	–
18610 kPa, x1 = 0.0102	–	808 ± 4
18620 kPa, x1 = 0.0102	769 ± 4	–
18620 kPa, x1 = 0.1024	902 ± 4	–
18670 kPa, x1 = 0.0487	835 ± 4	806 ± 4
18690 kPa, x1 = 0.1024	902 ± 4	–
18750 kPa, x1 = 0.1024	903 ± 4	–
18810 kPa, x1 = 0.0102	–	813 ± 4
18820 kPa, x1 = 0.0487	–	809 ± 4
18860 kPa, x1 = 0.0102	773 ± 4	–
18860 kPa, x1 = 0.0487	837 ± 4	–
18860 kPa, x1 = 0.1024	904 ± 4	–
18940 kPa, x1 = 0.1024	905 ± 4	–
18990 kPa, x1 = 0.0487	–	811 ± 4
19040 kPa, x1 = 0.0487	840 ± 4	–
